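Where inhibition never reached the appropriate level, the endpoint shown equals the highest concentration tested. Otherwise, values were interpolated linearly from a five-concentration, 48-hour dose response in 96-well plates. GI50 is the concentration that inhibits growth by half.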 The source made the active and inactive calls. No stated cut-off is given here; in the data, active = GI50 up to about 1.1 µM and inactive = higher.
Tests used:
Assay in all cases: DTP human tumour cell line panel, 48 h
[1] = test system: Malme-3M
[2] = test system: SW-620
[3] = test system: NCI/ADR-RES
[4] = test system: LOX IMVI
[5] = test system: HT-29
[6] = test system: HCT-116
[7] = test system: SR
[8] = test system: SK-MEL-2
[9] = test system: A498
[10] = test system: TK-10
[11] = test system: MDA-MB-435
[12] = test system: KM12
[13] = test system: 786-0
[14] = test system: SK-MEL-5
[15] = test system: SK-OV-3
[16] = test system: MOLT-4
[17] = test system: OVCAR-3
[18] = test system: ACHN
[19] = test system: HOP-62
[20] = test system: SNB-19
[21] = test system: HCC 2998
[22] = test system: SF-268
[23] = test system: MDA-MB-231
[24] = test system: SN12C
[25] = test system: M14
[26] = test system: RXF 393
[27] = test system: CAKI-1
[28] = test system: SF-539
[29] = test system: UO-31
[30] = test system: OVCAR-8
[31] = test system: UACC-62
[32] = test system: RPMI-8226
[33] = test system: A549
[34] = test system: SK-MEL-28
[35] = test system: IGROV-1
[36] = test system: HL-60
[37] = test system: DU-145
[38] = test system: NCI-H522
[39] = test system: OVCAR-4
[40] = test system: SNB-75
[41] = test system: UACC-257
[42] = test system: Hs-578T
[43] = test system: HCT-15
[44] = test system: CCRF-CEM
[45] = test system: HOP-92
[46] = test system: MCF7
[47] = test system: U-251
[48] = test system: COLO 205
[49] = test system: PC-3
[50] = test system: SF-295
[51] = test system: BT-549
[52] = test system: NCI-H23
[53] = test system: NCI-H460
[54] = test system: MDA-N
[55] = test system: NCI-H226
[56] = test system: K562

In the case of `Oc1cc(-c2cccc(Cl)c2)nc2ncccc12`, the GI50 [1] is reported as 139 nM (active), the GI50 [2] is reported as 114 nM (active) and the GI50 [3] is reported as 221 nM (active). The GI50 [4] was 133 nM (active), the GI50 [5] was 40.5 nM (active) and the GI50 [6] was 31.2 nM (active). The GI50 [7] was 37.8 nM (active), the GI50 [8] was 197 nM (active) and the GI50 [9] was 530 nM (active). The GI50 [10] was 24300 nM (inactive), the GI50 [11] was < 10 nM (active) and the GI50 [12] was 51.5 nM (active). For the same molecule, the GI50 [13] was 249 nM (active), the GI50 [14] was 38.7 nM (active) and the GI50 [15] was 163 nM (active). The GI50 [16] was 54.5 nM (active), the GI50 [17] was 46.6 nM (active) and the GI50 [18] was 3270 nM (inactive). The GI50 [19] was 253 nM (active), the GI50 [20] was 192 nM (active) and the GI50 [21] was 77.1 nM (active). The GI50 [22] was 5530 nM (inactive), the GI50 [23] was 570 nM (active) and the GI50 [24] was 141 nM (active). For the same molecule, the GI50 [25] was 84.5 nM (active), the GI50 [26] was 219 nM (active) and the GI50 [27] was 101 nM (active). For the same molecule, the GI50 [28] was 53.2 nM (active), the GI50 [29] was 2520 nM (inactive) and the GI50 [30] was 377 nM (active). For the same molecule, the GI50 [31] was 57.7 nM (active), the GI50 [32] was 50 nM (active) and the GI50 [33] was 126 nM (active). The GI50 [34] was 183 nM (active), the GI50 [35] was 81.3 nM (active) and the GI50 [36] was 14.2 nM (active). The GI50 [37] was 644 nM (active), the GI50 [38] was 47.4 nM (active) and the GI50 [39] was > 66700 nM (inactive). For the same molecule, the GI50 [40] was 971 nM (active), the GI50 [41] was 84300 nM (inactive) and the GI50 [42] was 84 nM (active). For the same molecule, the GI50 [43] was 48.9 nM, the GI50 [44] was 68.9 nM (active) and the GI50 [45] was 21000 nM (inactive). The GI50 [46] was 122 nM (active), the GI50 [47] was 106 nM (active) and the GI50 [48] was 78.2 nM (active). The GI50 [49] was 24.8 nM (active), the GI50 [50] was 53.3 nM (active) and the GI50 [51] was 7330 nM (inactive). For the same molecule, the GI50 [52] was 1540 nM (inactive), the GI50 [53] was 60.5 nM (active) and the GI50 [54] was 13.2 nM (active). The GI50 [55] was 378 nM (active) and the GI50 [56] was 20.8 nM (active).

From ChEMBL document CHEMBL1201862, “PubChem BioAssay data set” (2004)
